Assay type in all cases: cell-based
The subject of one assay is MIA-PaCa-2. The assay can be described thus: CellTiter-Glo cell viability, MIA-PaCa-2. The note with it: Homo sapiens; MIA-PaCa-2 cells, 72 h with compound. The protocol: (§1) Antitumor activity against a panel of cancer cell lines Antitumor activity of the compounds was assessed by using the CellTiter-Glow® Luminescent Cell Viability assay (Promega #G7572) according to the manufacturer's instructions. The compounds were tested at 5 or 6 concentrations in 1:2 dilution increments (highest concentration 10 µM) in triplicate well conditions.
(§2) Tumor cells were grown at 37° C. in a humidified atmosphere with 5% CO2 in RPMI 1640 or DMEM medium, supplemented with 10% (v/v) fetal calf serum and 50 μg/ml gentamicin for up to 20 passages, and were passaged once or twice weekly. Cells were harvested using TrypLE or PBS buffer containing 1 mM EDTA, and the percentage of viable cells is determined using a cell counter.
(§3) Cells were harvested from exponential phase cultures, counted and plated in 96 well flat-bottom microtiter plates at a cell density depending on the cell line's growth rate (4,000-20,000 cells/well depending on the cell line's growth rate) in RPMI 1640 or DMEM medium supplemented with 10% (v/v) fetal calf serum and 50 μg/ml gentamicin (140 μl/well). Cultures were incubated at 37° C. and 5% CO2 in a humidified atmosphere. After 24 h, 10 μl of test compounds or control medium are added, and left on the cells for another 72 h. Compounds were serially diluted in DMSO, transferred in cell culture medium, and added to the assay plates. The DMSO concentration was kept constant at <0.2% v/v across the assay plate. Viability of cells was quantified by the CellTiter-Glow® Luminescent Cell Viability assay (Promega #G7572). Luminescence was measured with the microplate luminometer (En Vision Perkin Elmer).
(§4) Sigmoidal concentration-response curves were fitted to the data points (test-versus-control, T/C values) obtained for each tumor model using Graph Pad prism 5.02 software. IC50 values are reported as absolute IC50 values, being the concentration of test compound at the intersection of the concentration-response curves with T/C=50%.

For the next assay, the system named is NCI-H1975. Description: CellTiter-Glo cell viability, NCI-H1975. To be noted: Homo sapiens, H-1975 cells, 72 h with compound. The protocol:
as §1, §2
as §3, with “After 24 h, 10 μl of test compounds or control medium are added, and left on the cells for another 72 h. Compounds were serially diluted in DMSO, transferred in cell culture medium, and added to the assay plates. The DMSO concentration was kept constant at <0.2% v/v across the assay plate.” left out, “Elmer). […]” for “Elmer).”

The subject of the next assay is Oxidative Stress. Description: SelectScreen CellSensor pathway inhibition, Oxidative Stress. The note with it: Homo sapiens; ARE-bla HepG2, stimulus tBHQ. The protocol: (§5) Inhibition of various cellular pathways known to be involved in malignancy was tested using the SelectScreen Cell-based Pathway Profiling GeneBLAzer™ cell signaling pathway specific CellSensor™ cell lines ((Thermo Fisher). The assay is based on a beta-lactamase reporter activity which is modulated and can be measured quantitatively and selectively with the LiveBLAzer™-FRET B/G Loading Substrate. SelectScreen Cell-Based Pathway Profiling Service uses XLfit from IDBS. The dose response curve is curve fit to model number 205 (sigmoidal dose-response model). Custom logic was built by Thermo Fisher for the data analysis tool to address the different compound characteristics that can be observed with functional assays.
Oxidative Stress—ARE-bla HepG2—Inhibitor Screen, Activated by tBHQ
ARE-bla HepG2 cells are thawed and resuspended in Assay Media (DMEM, 10% dialyzed FBS, 25 mM HEPES pH 7.3, 0.1 mM NEAA, 100 U/mL/100 μg/mL Pen/Strep) to a concentration of 375,000 cells/mL. 32 μL of cell suspension is added to each well of a 384-well Poly-D-Lysine assay plate. Cells in Assay Media are incubated for 16-24 hours in the plate at 37° C./5% CO2 in a humidified incubator. […] The plate is read on a fluorescence plate reader.

The subject of another assay is A-673. Description: CellTiter-Glo cell viability, A-673. To be noted: Homo sapiens, A673; A-673 cells, 72 h with compound. The procedure: as §1, §2, §3, §4
The subject of the next assay is MeWo. Description: Caspase-Glo 3/7 apoptosis assay, MeWo. To be noted: MeWo cells, 10 μM, 24 h. The protocol: (§6) Apoptosis activity was evaluated using Caspase-Glo 3/7 Assay kit (Promega-G8091) according to the manufacturer's instructions. Cells were grown as above and harvested from exponential phase cultures, counted and plated in 96 black well flat-bottom microtiter plates at a cell density depending on the cell line's growth rate (3,000-10,000 cells/well depending on the cell line's growth rate). Following an overnight incubation, compounds were added to the cell plates at various concentrations (highest at […]) with the DMSO concentration maintained at 0.1% for a 24 h period treatment. 100 μL of Caspase-Glo 3/7 Reagent was added to each well of 96-well plate containing 100 μL culture medium, and after 30 min at room temperature, luminescence was measured with the microplate luminometer (EnVision Perkin Elmer). The induced relative Caspase 3/7 activity of the tested compounds was determined by the following formula: Relative Caspase 3/7 activity (fold increase)=(RLU compound−RLU blank)/(RLU control−RLU blank).

In another assay the test system is A375. Description: Caspase-Glo 3/7 apoptosis assay, A375. To be noted: A375 cells, 10 μM, 24 h. The procedure:
as §6

The test system of a further assay is SK-Mel-5. Description: Caspase-Glo 3/7 apoptosis assay, SK-Mel-5. To be noted: SK-Mel-5 cells, 1 μM, 24 h. The protocol:
as §6

The subject of a further assay is MAPK/MEK/B-raf. The assay can be described thus: SelectScreen CellSensor pathway inhibition, MAPK/MEK/B-raf. The note with it: Homo sapiens, A-375; AP1-bla A375, no stimulus (constitutively activated). The protocol:
as §5
MAPK/MEK/B-raf—AP1-bla A375—Inhibitor Screen, Constitutively Activated
AP1-bla A375 cells are thawed and resuspended in Assay Media (OPTI-MEM, 0.5% dialyzed FBS, 0.1 mM NEAA, 1 mM Sodium Pyruvate, 100 U/mL/[…] Pen/Strep) to a concentration of 312,500 cells/mL. 4 μL of a 10×serial dilution of Rafi Kinase Inhibitor (control inhibitor starting concentration, 10,000 nM) or compounds are added to appropriate wells of a TC-Treated assay plate. 32 μL of cell suspension (10,000 cells) is added to the wells. 4 μL of Assay Media is added to all wells to bring the final assay volume to 40 μL. […] The plate is read on a fluorescence plate reader.

The next assay has as its system Kelly. The assay can be described thus: CellTiter-Glo cell viability, Kelly. The note with it: Kelly cells, 72 h with compound. The protocol:
as §1, §2, §3, §4

Consider `COc1ccc2c(=O)c(-c3ccc(CCCC[P+](c4ccccc4)(c4ccccc4)c4ccccc4)cc3)coc2c1OC.[Br-]` [SND470, (4-(4-(7,8-Dimethoxy-4-oxo-4H-chromen-3-yl)phenyl)butyl)triphenylphosphonium bromide], for which the 50% inhibitory concentration (IC50) in the assay with MIA-PaCa-2 came to 0.022 µM; in the assay on NCI-H1975 it was 0.14 µM; with Oxidative Stress, 1.35 µM; in the assay on A-673, 0.2 µM; with MAPK/MEK/B-raf it was 2.7 µM; with Kelly, 0.012 µM. Moreover, the “Fold activation of Caspase 3/7” value was determined as 2.55 Fold in the assay with MeWo, 13.98 Fold in the assay with A375 and 7.22 Fold in the assay with SK-Mel-5.
